PubChem BioAssay AID2060621 (Molecular Pharmacology Branch, DTP, NCI, 2025)

Tested on: 324938-238-R-J1-PDC complex spheroids viability
Assay: Anticancer human tumor 324938-238-R-J1-PDC patient-derived bladder carcinoma cell line growth inhibition [CLK]
Details: for IC50: curve of first compound; for viability, T/C: stronger effect = lower value
Procedure, shortened: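 Multi-cell-type spheroids combined patient-derived tumor cells with HUVEC endothelial cells and human mesenchymal stem cells. Paired agents were dosed in half-log steps down from about clinical Cmax, or from 10 microM where Cmax was unknown.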

[1] = second compound 0.0316 µM, first compound 0.0316 µM
[2] = second compound 0.0316 µM, first compound 0.1 µM
[3] = second compound 0.0316 µM, first compound 0.316 µM
[4] = second compound 0.0316 µM, first compound 1 µM
[5] = second compound 0.1 µM, first compound 0.0316 µM
[6] = second compound 0.1 µM, first compound 0.1 µM
[7] = second compound 0.1 µM, first compound 0.316 µM
[8] = second compound 0.1 µM, first compound 1 µM
[9] = second compound 0.316 µM, first compound 0.0316 µM
[10] = second compound 0.316 µM, first compound 0.1 µM
[11] = second compound 0.316 µM, first compound 0.316 µM
[12] = second compound 0.316 µM, first compound 1 µM
[13] = second compound 1 µM, first compound 0.0316 µM
[14] = second compound 1 µM, first compound 0.1 µM
[15] = second compound 1 µM, first compound 0.316 µM
[16] = second compound 1 µM, first compound 1 µM
[17] = second compound 3.16 µM, first compound 0.0316 µM
[18] = second compound 3.16 µM, first compound 0.1 µM
[19] = second compound 3.16 µM, first compound 0.316 µM
[20] = second compound 3.16 µM, first compound 1 µM
[21] = second compound 10 µM, first compound 0.0316 µM
[22] = second compound 10 µM, first compound 0.1 µM
[23] = second compound 10 µM, first compound 0.316 µM
[24] = second compound 10 µM, first compound 1 µM
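Note: viability read after seven days of drug exposure.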
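Throughout, for viability, T/C: 100% = DMSO vehicle control wells.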

CCN1CCN(Cc2ccc(Nc3ncc(F)c(-c4cc(F)c5nc(C)n(C(C)C)c5c4)n3)nc2)CC1 + CNC(=O)c1ccc(Nc2nc(OC3CCCC3)c3c(-c4ccc5nc(C)oc5c4)c[nH]c3n2)c(OC)c1
IC50 (second compound 0.0316 µM): 87.6 nM | IC50 (second compound 0.1 µM): < 3.16 nM | IC50 (second compound 0.316 µM): < 3.16 nM | IC50 (second compound 1 µM): < 3.16 nM | IC50 (second compound 3.16 µM): < 3.16 nM | IC50 (second compound 10 µM): < 3.16 nM | viability, T/C (second compound 0.0316 µM, first compound 0.00316 µM): 75.9% | viability, T/C (second compound 0.0316 µM, first compound 0.01 µM): 77.3% | viability, T/C [1]: 57.8% | viability, T/C [2]: 49.9% | viability, T/C [3]: 42.8% | viability, T/C [4]: 36.6% | viability, T/C (second compound 0.1 µM, first compound 0.00316 µM): 32.2% | viability, T/C (second compound 0.1 µM, first compound 0.01 µM): 31.5% | viability, T/C [5]: 29.7% | viability, T/C [6]: 30.7% | viability, T/C [7]: 33.5% | viability, T/C [8]: 38.7% | viability, T/C (second compound 0.316 µM, first compound 0.00316 µM): 19.7% | viability, T/C (second compound 0.316 µM, first compound 0.01 µM): 17% | viability, T/C [9]: 19% | viability, T/C [10]: 22.7% | viability, T/C [11]: 30.5% | viability, T/C [12]: 33.3% | viability, T/C (second compound 1 µM, first compound 0.00316 µM): 18.5% | viability, T/C (second compound 1 µM, first compound 0.01 µM): 17.9% | viability, T/C [13]: 16.8% | viability, T/C [14]: 21.5% | viability, T/C [15]: 22.6% | viability, T/C [16]: 31.9% | viability, T/C (second compound 3.16 µM, first compound 0.00316 µM): 19% | viability, T/C (second compound 3.16 µM, first compound 0.01 µM): 18% | viability, T/C [17]: 16.1% | viability, T/C [18]: 20.6% | viability, T/C [19]: 29.9% | viability, T/C [20]: 30.5% | viability, T/C (second compound 10 µM, first compound 0.00316 µM): 16.4% | viability, T/C (second compound 10 µM, first compound 0.01 µM): 15.9% | viability, T/C [21]: 21.2% | viability, T/C [22]: 18.4% | viability, T/C [23]: 23% | viability, T/C [24]: 32.5%

CC1COCCN1c1cc(C2(S(C)(=N)=O)CC2)nc(-c2ccnc3[nH]ccc23)n1 (centres undefined) + CN1CCN(c2cc(C(=O)Nc3cc4cc(-c5cnn(C)c5)ccc4cn3)ccn2)CC1
IC50 (second compound 0.0316 µM): 1100 nM | IC50 (second compound 0.1 µM): 400 nM | IC50 (second compound 0.316 µM): < 31.6 nM | IC50 (second compound 1 µM): < 31.6 nM | IC50 (second compound 3.16 µM): < 31.6 nM | IC50 (second compound 10 µM): < 31.6 nM | viability, T/C [1]: 80.1% | viability, T/C [2]: 79.7% | viability, T/C [3]: 70% | viability, T/C [4]: 51.8% | viability, T/C (second compound 0.0316 µM, first compound 3.16 µM): 28.8% | viability, T/C (second compound 0.0316 µM, first compound 10 µM): 14.8% | viability, T/C [5]: 55.3% | viability, T/C [6]: 52.7% | viability, T/C [7]: 55.3% | viability, T/C [8]: 39.8% | viability, T/C (second compound 0.1 µM, first compound 3.16 µM): 22.9% | viability, T/C (second compound 0.1 µM, first compound 10 µM): 11.5% | viability, T/C [9]: 24.8% | viability, T/C [10]: 24.1% | viability, T/C [11]: 19% | viability, T/C [12]: 21.9% | viability, T/C (second compound 0.316 µM, first compound 3.16 µM): 16.1% | viability, T/C (second compound 0.316 µM, first compound 10 µM): 11.4% | viability, T/C [13]: 1.54% | viability, T/C [14]: 1.37% | viability, T/C [15]: 1.72% | viability, T/C [16]: 1.08% | viability, T/C (second compound 1 µM, first compound 3.16 µM): 1.06% | viability, T/C (second compound 1 µM, first compound 10 µM): 0.6% | viability, T/C [17]: 0.25% | viability, T/C [18]: 0.15% | viability, T/C [19]: 0.19% | viability, T/C [20]: 0.16% | viability, T/C (second compound 3.16 µM, first compound 3.16 µM): 0.16% | viability, T/C (second compound 3.16 µM, first compound 10 µM): 1.37% | viability, T/C [21]: 0.16% | viability, T/C [22]: 0.17% | viability, T/C [23]: 0.21% | viability, T/C [24]: 0.16% | viability, T/C (second compound 10 µM, first compound 3.16 µM): 0.22% | viability, T/C (second compound 10 µM, first compound 10 µM): 0.22%
